Data published in patent US9446061B2, “Composition containing antibiotics and lysophosphatidylcholine for boosting immunity or treatment of bacterial infections” (priority 2011, dated 2016).

Legend:
[1] = test system: thymic CD3+, CD4+, CD8+ and TNF-α+ cells; test: Immunohistochemistry of thymus (cortex and medulla) in CPA-treated mice; assay type: in vivo, ICR mice
Protocol: After deparraffinized, CD3 epitope retrievals were conducted in 10 mM Tris-1 mM EDTA Buffer (pH 9.0), CD4 and CD8 in 1 mM EDTA Buffer (pH 8.0), and TNF-α in 10 mM Citrate Buffer (pH 6.0) as previous methods. Primary anti-antibodies used in the invention were as following table.
The water bath with a staining dish, containing a buffer, was preheated until the temperature reached 95-100. The staining dish was placed at room temperature and the slides were cooled for 20 minutes. After epitope retrivals, sections were immunostained as following steps
First, the sections were incubated with methanol and 0.3% H2O2 for 30 min to block endogenous peroxidase activity at room temperature, and then rinsed three times in 0.01M phosphate buffered saline (PBS; pH 7.2) for 3 times. Then, the sections were incubated with the normal horse serum blocking solution (Vector Lab. Inc., CA, USA., dilution 1:100) for 1 hr at room temperature in a humidity chamber, to block non-specific binding of immunoglobulin, and then rinsed three times in 0.01M PBS. The sections were incubated with four types of primary antisera for 12 hrs at 4 in a humidity chamber, and then rinsed three times in 0.01M PBS. The sections were incubated with universal biotinylated secondary antibody for 1 hr at room temperature in a humidity chamber, and then rinsed three times in 0.01M PBS. The sections were incubated with ABC reagents (Vectastain Elite ABC Kit, Vector Lab. Inc., CA, USA. Dilution 1:50) for 1 hr at room temperature in a humidity chamber, and then rinsed three times in 0.01M PBS. The sections were incubated in the peroxidase substrate kit (Vector Lab. Inc., CA) for 30 seconds at room temperature, and then rinsed three times in 0.01M PBS. The sections were counterstained with the Mayer's hematoxylin solution, and then rinsed in running tap water for 30 minutes. The sections were dehydrated through 95% ethanol for 2 min and 100% ethanol for […], and then rinsed in xylene for 2 hrs. After that, the sections were observed using a cover slip with permanent mounting medium under the light microscope (Zeiss, Germany).
Histomorphometry—Among 1000 splenic or thymic cells, the numbers (N) of immunoreactive cells (CD3+, CD4+, CD8+, and TNF-α+) were observed as N/1000 splenocytes or thymocytes using automated image analysis. In thymus, the counts were conducted in the both cortex and medulla separately.

[2] = Body weight of CPA-treated mice (Example 9); s.c. 4 times 12-hr intervals from 24 hrs after last CPA-dosing; settings: LPC 1, DW286 0.5, Mix 0.75 mg/kg
Protocol: In the INTACT control group, an equal volume of physiological saline was dosed instead of CPA by the same method.
(§1) In Intact control animals, equal volume of saline was only dosed instead of CPA with same methods.
(§2) In CPA-CLP model, body weight and mortalities were measured once a day for 5 days with automatic electronic balances (Sartorius Co., Ltd., USA), once a day for 2 days in CPA-treated model. All animals were overnight fasted at CPA dosing, CLP or initial dosing to reduce differences from feeding. In addition, body weight gains were calculated as follows:
CPA-Treat Model: Body weight at sacrifice—at initial dosing (2 days)
To find suitable dosing regime of LPC and DW286AA combination during the development of new therapeutic agents against sepsis, evaluation was conducted by using CPA-CLP— and CPA-induced immunosuppressive mice. […] Then, mortalities, changes in thymus and spleen weights, changes in white blood cell (WBC) number, and changes in thymic and splenic CD3+, CD4+, CD8+, and TNF-α+ cell numbers, were evaluated together with changes in bone marrow polychromatic erythrocytes contain micronuclei (MNPCE) number.
(§3) Appropriate doses of candidate materials were dissolved in 5% human serum albumin, and subcutaneously dosed at 10 ml/kg (of body weight), 4 times 12-hr intervals from 6 hrs after CLP or 24 hrs after last CPA-dosing, respectively. In the INTACT, CPA, or CPA-CLP control groups, an equal volume of 5% human serum albumin was dosed by the same procedure.

[3] = Body weight of CPA-CLP mice (Example 9); settings: LPC 1, DW286 0.5, Mix 0.75 mg/kg
Protocol: as §2
CPA-CLP Model: Body weight at sacrifice—at CLP(5 days)
Then, mortalities, changes in thymus and spleen weights, changes in white blood cell (WBC) number, and changes in thymic and splenic CD3+, CD4+, CD8+, and TNF-α+ cell numbers, were evaluated together with changes in bone marrow polychromatic erythrocytes contain micronuclei (MNPCE) number.
as §3

[4] = test system: CPA-CLP sepsis mouse model; test: Combination effects of LPC and antibiotics (colistin, tobramycin, fusidin) in CPA-CLP sepsis mouse model (SEP013); single i.v. 6 hrs after CLP; assay type: in vivo, ICR mice; settings: mpk: LPC 5, DW286aa 5, Colistin 5, Tobra 4, Fusidin 80, LPC + Colistin 5 + 5, LPC + Tobra 5 + 4, LPC + Fusidin 5 + 80
From the text: CPA is well known as an immunosuppressive agent. […] Then, the abdomen was closed following the general procedure.
Then, body weight and mortality changes were observed.

[5] = test system: bone marrow polychromatic erythrocytes; test: Bone marrow MNPCE and PCE/(PCE+NCE) in CPA-treated mice; settings: LPC 1, DW286 0.5, Mix 0.75 mg/kg
Protocol: as §1
In brief, bone marrow cells were collected from aforementioned femur in 3 ml of inactivated fetal bovine serum (GIBCO BRL, USA), centrifuged, and smeared on slide. Preparations were dried, and fixed by submerging in absolute methanol (for 10˜20 min). Fixed slides were stained as follow:
Slides were randomly coded and examined under×1000 magnification by two different experts. Small round or oval shaped bodies, size of which ranging about ⅕ to 1/20 of diameter of PCE, were counted as micronuclei. Attention was given to discriminate micronuclei from artifacts. Results were expressed as the number of MNPCEs in 1000 PCEs. Mean number of MNPCE±S.D. was calculated for each treatment group.
as §3

[6] = test system: CPA-induced immunosuppressive mice; test: Histopathology/histomorphometry of thymus and spleen in CPA-treated mice; assay type: in vivo, ICR mice; settings: LPC 1, DW286 0.5, Mix 0.75 mg/kg
Protocol: After measuring of organ weight, thymus and spleen was sampled. Sampled organs were fixed in 10% neutral buffered formalin. After paraffin embedding, 3-4 μm sections were prepared. Representative sections were stained with Hematoxylin and Eosin (H&E) for light microscopical examination. After that the histological profiles of individual organs were observed.
The numbers of white pulps in spleen were calculated as N/histological sections (×50) using automated image analysis (analySIS Image Processing; SIS, Germany). In addition, the numbers of atrophic changes on thymic cortex/total observed number of thymus were also calculated.

[7] = LPC 1, DW286 0.5, Mix 0.75 mg/kg
[8] = thymus cortex, CPA-treated mice, Mean ± S.D., n = 9
[9] = thymus medulla, CPA-treated mice, Mean ± S.D., n = 9
[10] = At First CPA dosing (overnight fasted)

## CON=C1CN(c2nc3c(cc2F)c(=O)c(C(=O)O)cn3C2CC2)CC1(C)CN.Cl (stereo not drawn) [DW286aa, 7-[3-(aminomethyl)-4-(methoxyimino)-3-methyltetrahydro-1H-1-pyrrolyl]-1-cyclopropyl-6-fluoro-4-oxo-1,4-dihydro[1,8]naphthyridine-3-carboxylic acid hydrochloric acid salt]
[1]; [7]
  numbers of thymic cortex CD3+ cells, change compared to CPA control: −9.16%
  numbers of thymic cortex CD4+ cells, change compared to CPA control: 21.74%
  numbers of thymic cortex CD8+ cells, change compared to CPA control: 33.33%
  numbers of thymic medulla CD3+ cells, change compared to CPA control: −33.33%
  numbers of thymic medulla CD4+ cells, change compared to CPA control: 27.27%
  numbers of thymic medulla CD8+ cells, change compared to CPA control: −22.22%
  thymic cortex TNF-α+ cells, change compared to CPA control: −13.040%
  thymic medulla TNF-α+ cells, change compared to CPA control: 0.00%
[1]; [8]
  CD3+ cells, Thymus: Cortex (IHC-Histomorphometry): 165.33 N/1000 splenocytes or thymocytes
  CD4+ cells, Thymus: Cortex (IHC-Histomorphometry): 3.11 N/1000 splenocytes or thymocytes
  CD8+ cells, Thymus: Cortex (IHC-Histomorphometry): 4.00 N/1000 splenocytes or thymocytes
  TNF-α+ cells, Thymus: Cortex (IHC-Histomorphometry): 2.22 N/1000 splenocytes or thymocytes
[1]; [9]
  CD3+ cells, Thymus: Medulla (IHC-Histomorphometry): 0.22 N/1000 splenocytes or thymocytes
  CD4+ cells, Thymus: Medulla (IHC-Histomorphometry): 1.78 N/1000 splenocytes or thymocytes
  CD8+ cells, Thymus: Medulla (IHC-Histomorphometry): 1.56 N/1000 splenocytes or thymocytes
  TNF-α+ cells, Thymus: Medulla (IHC-Histomorphometry): 0.00 N/1000 splenocytes or thymocytes
[2]; 1 day after second CPA-dosing
  Body weight: 37.46 ± 1.96 g
[2]; 2 days after second CPA-dosing
  Body weight: 38.61 ± 1.95 g
[2]; At Dosing (overnight fasted)
  Body weight: 33.02 ± 1.95 g
[2]; [10]
  Body weight: 36.84 ± 1.83 g
[2]
  Body weight gains during 2 days after dosing: 5.59 ± 1.03 g
  body weight (gains) change compared to the CPA control group: −1.37%
[3]; 1 day after CLP
  Body weight: 31.50 ± 1.34 g
[3]; 2 days after CLP
  Body weight: 29.88 ± 0.98 g
[3]; 3 days after CLP
  Body weight: 30.97 ± 0.99 g
[3]; At CLP (overnight fasted)
  Body weight: 33.77 ± 1.42 g
[3]; [10]
  Body weight: 34.32 ± 1.32 g
[4]; 1st CPA treat
  Mortalities: 0
  Survivalities: 100%
[4]; 2nd CPA treat
  Mortalities: 0
  Survivalities: 100%
[4]; At CLP (day 0)
  Mortalities: 0
  Survivalities: 100%
[4]; Day 1
  Mortalities: 0
  Survivalities: 100%
[4]; Day 2
  Mortalities: 0
  Survivalities: 100%
[4]; Day 3
  Mortalities: 2
  Survivalities: 80%
[4]; Total
  Mortalities: 2
  Survivalities: 80%
[5]
  MNPCE numbers, change compared to CPA control: −10.85%
  PCE/(PCE+NCE), change compared to CPA control: −14.79%
[5]; among 500 erythrocytes
  NCE: 379.67 ± 17.07
  PCE: 120.33 ± 17.07
  PCE/(NCE + PCE): 0.24 ± 0.03
[5]; among 1000 PCEs
  % MNPCE: 2.56 ± 0.57 %
[6]
  Spleen: Number of white pulps: 6.11 ± 1.45 N/histological sections
  Thymus: Incidences of thymic cortex atrophy (atrophic changes/total observed number of thymus): 9/9 (100%)
  incidences of decrease of lymphoid cells in the thymic cortex: 100%
  numbers of white pulps of spleen, change compared to CPA control: −1.79%
